Assay results published in ChEMBL document CHEMBL2029323, “The discovery and development of selective 3-fluoro-4-aryloxyallylamine inhibitors of the amine oxidase activity of semicarbazide-sensitive amine oxidase/vascular adhesion protein-1 (SSAO/VAP-1)” (Bioorg Med Chem Lett, 2012).

Legend:
[1] = biological target: T1, Amine oxidase [flavin-containing] B (Homo sapiens, UniProt P27338); assay: Inhibition of human recombinant MAO-B assessed as H2O2 production by Resorufin/Amplex Red assay
T1 sequence (P27338 whole entry): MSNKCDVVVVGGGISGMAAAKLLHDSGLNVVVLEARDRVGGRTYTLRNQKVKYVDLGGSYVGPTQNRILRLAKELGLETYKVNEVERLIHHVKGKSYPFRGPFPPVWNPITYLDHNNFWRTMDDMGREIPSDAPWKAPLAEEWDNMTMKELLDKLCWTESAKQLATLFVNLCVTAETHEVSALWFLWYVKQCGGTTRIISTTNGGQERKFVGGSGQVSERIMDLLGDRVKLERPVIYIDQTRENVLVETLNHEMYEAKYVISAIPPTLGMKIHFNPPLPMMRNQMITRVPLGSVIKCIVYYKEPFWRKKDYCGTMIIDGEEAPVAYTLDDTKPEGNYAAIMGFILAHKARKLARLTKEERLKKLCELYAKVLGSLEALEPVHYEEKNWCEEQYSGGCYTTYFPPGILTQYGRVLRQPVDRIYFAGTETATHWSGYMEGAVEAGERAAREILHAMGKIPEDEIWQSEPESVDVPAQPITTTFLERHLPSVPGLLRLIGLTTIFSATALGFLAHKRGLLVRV

[2] = biological target: T2, Amine oxidase [copper-containing] 3 (Homo sapiens, UniProt Q16853); assay: Inhibition of human recombinant SSAO/VAP1 assessed as H2O2 production by Resorufin/Amplex Red assay
T2 sequence (Q16853 whole entry): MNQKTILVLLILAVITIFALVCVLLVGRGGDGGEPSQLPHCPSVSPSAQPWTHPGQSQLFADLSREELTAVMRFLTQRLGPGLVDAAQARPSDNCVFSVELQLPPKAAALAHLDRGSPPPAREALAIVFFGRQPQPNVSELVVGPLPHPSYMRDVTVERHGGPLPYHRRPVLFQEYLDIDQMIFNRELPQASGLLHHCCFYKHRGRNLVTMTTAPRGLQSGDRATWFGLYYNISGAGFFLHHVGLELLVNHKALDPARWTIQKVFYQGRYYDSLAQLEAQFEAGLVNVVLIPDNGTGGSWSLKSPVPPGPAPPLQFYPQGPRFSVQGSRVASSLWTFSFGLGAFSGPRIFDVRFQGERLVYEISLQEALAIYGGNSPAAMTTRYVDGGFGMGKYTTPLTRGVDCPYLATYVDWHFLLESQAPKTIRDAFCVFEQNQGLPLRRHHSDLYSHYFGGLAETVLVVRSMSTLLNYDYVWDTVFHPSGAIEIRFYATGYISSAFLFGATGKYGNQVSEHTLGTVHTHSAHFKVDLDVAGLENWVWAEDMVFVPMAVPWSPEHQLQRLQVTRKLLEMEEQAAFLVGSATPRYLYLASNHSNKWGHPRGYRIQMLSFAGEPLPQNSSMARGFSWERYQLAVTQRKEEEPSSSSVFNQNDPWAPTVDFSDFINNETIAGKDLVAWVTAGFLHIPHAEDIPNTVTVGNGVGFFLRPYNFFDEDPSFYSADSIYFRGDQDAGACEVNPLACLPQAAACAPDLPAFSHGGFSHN

[3] = biological target: T3, Amine oxidase [flavin-containing] A (Homo sapiens, UniProt P21397); assay: Inhibition of human recombinant MAO-A assessed as H2O2 production by Resorufin/Amplex Red assay
T3 sequence (P21397 whole entry): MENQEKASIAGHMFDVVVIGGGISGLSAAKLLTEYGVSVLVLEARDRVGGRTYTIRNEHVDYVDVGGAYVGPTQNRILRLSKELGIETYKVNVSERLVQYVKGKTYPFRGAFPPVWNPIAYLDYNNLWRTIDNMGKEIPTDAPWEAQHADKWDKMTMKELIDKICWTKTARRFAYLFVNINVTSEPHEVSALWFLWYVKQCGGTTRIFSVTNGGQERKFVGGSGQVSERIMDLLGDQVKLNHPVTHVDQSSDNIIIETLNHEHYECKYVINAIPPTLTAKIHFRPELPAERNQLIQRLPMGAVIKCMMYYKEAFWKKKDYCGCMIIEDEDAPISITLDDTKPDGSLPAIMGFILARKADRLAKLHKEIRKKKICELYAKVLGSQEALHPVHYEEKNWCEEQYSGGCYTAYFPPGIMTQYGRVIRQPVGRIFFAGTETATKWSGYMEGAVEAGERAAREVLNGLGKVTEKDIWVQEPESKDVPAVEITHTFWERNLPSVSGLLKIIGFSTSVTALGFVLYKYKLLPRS

[4] = biological target: T4, Amine oxidase [copper-containing] 3 (Mus musculus, UniProt O70423); assay: Inhibition of SSAO/VAP1 in mouse adipocytes measuring H2O2 production by Resorufin/Amplex Red assay; assay type: cell-based
T4 sequence (O70423 whole entry): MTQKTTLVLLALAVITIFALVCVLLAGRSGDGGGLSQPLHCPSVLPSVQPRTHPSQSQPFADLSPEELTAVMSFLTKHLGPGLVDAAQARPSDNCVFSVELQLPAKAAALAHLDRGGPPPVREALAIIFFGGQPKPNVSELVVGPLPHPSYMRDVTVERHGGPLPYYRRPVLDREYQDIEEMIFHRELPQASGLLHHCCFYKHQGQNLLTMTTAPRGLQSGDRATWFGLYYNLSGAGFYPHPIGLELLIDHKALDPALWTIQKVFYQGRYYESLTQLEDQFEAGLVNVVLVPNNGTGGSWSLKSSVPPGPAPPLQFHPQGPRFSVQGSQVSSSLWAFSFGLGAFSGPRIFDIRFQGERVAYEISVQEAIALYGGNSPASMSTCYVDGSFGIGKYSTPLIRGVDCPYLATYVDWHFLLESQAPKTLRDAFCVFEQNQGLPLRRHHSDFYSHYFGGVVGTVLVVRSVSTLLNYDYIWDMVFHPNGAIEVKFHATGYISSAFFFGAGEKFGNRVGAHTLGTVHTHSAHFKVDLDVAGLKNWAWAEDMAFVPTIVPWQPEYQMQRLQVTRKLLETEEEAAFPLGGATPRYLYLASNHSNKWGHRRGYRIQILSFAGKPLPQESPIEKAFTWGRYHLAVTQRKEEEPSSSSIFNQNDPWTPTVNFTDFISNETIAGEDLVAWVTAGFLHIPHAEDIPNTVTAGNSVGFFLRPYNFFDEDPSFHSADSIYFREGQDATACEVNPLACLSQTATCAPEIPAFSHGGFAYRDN

[5] = biological target: recombinant human DAO (diamine oxidase) (Homo sapiens, UniProt P19801); assay: Inhibition of human DAO measuring H2O2 production by Resorufin/Amplex Red assay
[6] = biological target: T2, Amine oxidase [copper-containing] 3; assay: Inhibition of human SSAO/VAP1 measuring H2O2 production by Kitz and Wilson plot analysis
[7] = Oral bioavailability in rat; assay type: ADME, organism-based; conditions: in vivo
[8] = system: Mus musculus; assay: Inhibition of SSAO/VAP1 in po dosed mouse gonadal adipose tissue after 6 hrs; assay type: functional, organism-based
[9] = Half life in po dosed rat; assay type: ADME, organism-based; conditions: in vivo
[10] = biological target: T5, Amine oxidase [copper-containing] 2 (Homo sapiens, UniProt O75106); assay: Inhibition of human AOC2
T5 sequence (O75106 whole entry): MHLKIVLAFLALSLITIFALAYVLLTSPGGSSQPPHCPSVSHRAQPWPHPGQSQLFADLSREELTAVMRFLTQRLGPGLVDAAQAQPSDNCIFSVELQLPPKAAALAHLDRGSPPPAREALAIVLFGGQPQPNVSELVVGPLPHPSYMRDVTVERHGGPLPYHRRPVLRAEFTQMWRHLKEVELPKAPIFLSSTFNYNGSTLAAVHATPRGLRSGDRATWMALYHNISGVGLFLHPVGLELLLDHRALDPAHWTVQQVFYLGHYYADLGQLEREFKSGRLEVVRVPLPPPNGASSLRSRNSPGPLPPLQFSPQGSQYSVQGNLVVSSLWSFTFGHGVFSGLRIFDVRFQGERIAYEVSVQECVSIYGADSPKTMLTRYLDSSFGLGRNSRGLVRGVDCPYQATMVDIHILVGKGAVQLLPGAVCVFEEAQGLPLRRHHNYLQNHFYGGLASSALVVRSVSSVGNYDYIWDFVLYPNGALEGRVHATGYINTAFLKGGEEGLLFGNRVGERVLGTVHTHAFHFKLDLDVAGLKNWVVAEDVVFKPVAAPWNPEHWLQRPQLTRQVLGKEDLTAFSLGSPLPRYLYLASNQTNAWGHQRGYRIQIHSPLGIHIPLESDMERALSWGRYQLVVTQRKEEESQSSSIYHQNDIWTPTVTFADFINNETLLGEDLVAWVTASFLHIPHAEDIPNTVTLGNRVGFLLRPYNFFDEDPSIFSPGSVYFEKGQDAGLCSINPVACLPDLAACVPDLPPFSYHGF

[11] = system: Salmonella typhimurium; assay: Mutagenic activity in Salmonella typhimurium by Ames test; assay type: toxicity, organism-based; conditions: salmonella enterica subsp. enterica serovar typhimurium
[12] = Inhibition of CYP450; assay type: ADME
[13] = system: Rattus norvegicus; assay: Inhibition of SSAO/VAP1 in po dosed rat gonadal adipose tissue after 6 hrs; assay type: functional, organism-based

| SMILES | IC50 [1] [nM] | IC50 [2] [nM] | IC50 [3] [nM] | other results |
| --- | --- | --- | --- | --- |
| NC/C=C(/F)COc1ccc(OC(F)(F)F)cc1 | 70 | 180 |  |  |
| CSc1ccc(OC/C(F)=C\CN)cc1 | 160 | 20 |  |  |
| C[C@H](NC(=O)c1ccc(OC/C(F)=C\CN)cc1)c1ccccc1 | 6430 | 40 | > 30000 | IC50 [4]: 130 nM; IC50 [5]: 74100 nM |
| NCC=CCOc1ccccc1 [listing 2 of 2 here] |  | > 100000 |  |  |
| NC/C=C(/F)COc1ccc(C(=O)NCc2ccccc2)cc1 | 620 | 80 |  |  |
| NC/C=C(/F)COc1ccc(C(=O)NC2CCCCC2)cc1 | 1120 | 10 | > 30000 | bioavailability [7]: 62%; EC50 [8]: 10 mg/kg; half-life [9]: 1.62 h; IC50 [10]: > 10000 nM; IC50 [4]: 150 nM; Activity [11]: Non-toxic; inhibition (INH) [12]: Not Active; EC50 [13]: 10 mg/kg; IC50 [5]: 26100 nM; Ki [6]: 1640 nM |
| NC/C=C(/F)COc1cccc(Cl)c1 | 30 | 250 |  |  |
| NC/C=C(/F)COc1ccc([N+](=O)[O-])cc1 | 10 | 70 |  |  |
| CN(Cc1ccccc1)C(=O)c1ccc(OC/C(F)=C\CN)cc1 | 2210 | 260 |  |  |
| NC/C=C(/F)COc1ccccc1 | 180 | 290 | > 30000 |  |
| NC/C=C(/F)COc1ccc(F)c(F)c1 | 90 | 190 |  |  |
| NC/C=C(\F)COc1ccccc1 |  | 20000 |  |  |
| NC/C=C(/F)COc1ccc(C(=O)N2CCCC2)cc1 | 11000 | 140 |  |  |

Further lines, with some results ahead:

| IC50 [1] [nM] | IC50 [2] [nM] | IC50 [3] [nM] | SMILES | other results |
| --- | --- | --- | --- | --- |
| 10 | 20 | 1780 | NC/C(=C/F)CCc1ccc(F)cc1 [MOFEGILINE] | IC50 [4]: 10 nM; IC50 [5]: > 10000 nM; Ki [6]: 1610 nM |
|  | 82000 |  | NCC=CCOc1ccccc1 [listing 1 of 2 here] |  |
| 450 | 240 |  | NC/C=C(/F)COc1ccc(Oc2ccccc2)cc1 |  |
| > 30000 | 1070 | > 30000 | NC/C=C(/F)COc1ccc(C(N)=O)cc1 |  |
| 2980 | 40 |  | CC(NC(=O)c1ccc(OC/C(F)=C\CN)cc1)c1ccccc1 (racemic) |  |
| 310 | 160 |  | COc1ccc(OC/C(F)=C\CN)cc1 |  |
| 1610 | 30 | > 30000 | C[C@@H](NC(=O)c1ccc(OC/C(F)=C\CN)cc1)c1ccccc1 | IC50 [5]: 2460 nM |
| 1640 | 20 | > 30000 | NC/C=C(/F)COc1ccc(C(=O)NC2CCCC2)cc1 | IC50 [4]: 530 nM; IC50 [5]: > 30000 nM |
| 19000 | 370 |  | CN(C)C(=O)c1ccc(OC/C(F)=C\CN)cc1 |  |
| 30 | 150 | > 10000 | NC/C=C(/F)COc1cccc(C(F)(F)F)c1 |  |
| 6400 | 210 | > 30000 | CC(C)(C)c1ccc(OC/C(F)=C\CN)cc1 |  |
| 130 | 40 |  | NC/C=C(/F)COc1ccc(C(F)(F)F)cc1 |  |
